Assay results as given in patent US20240000872A1, “NOVEL BACTERIOPHAGE THAT LYSES ACINETOBACTER GENUS BACTERIA HAVING RESISTANCE TO ANTIBIOTICS” (priority 2020, published 2024).

System: Acinetobacter baumannii strains
Experiment: Antibiotic susceptibility test (CLSI disk diffusion test method, read per CLSI 2016)
Assay type: cell-based
Method: (§1) Strain identification was performed using a kit such as AT 32 GN system (bioMérieux, Marcy l'Etoile, France). […] In Table 2 below, S, I, and R are the results obtained by evaluating susceptibility to the antibacterial agents, in which ‘S’ means susceptible, ‘I’ means intermediate, and ‘R’ means resistant.
as §1, with “as ATB” for “as AT”, “system (bioMédrieux,” for “system (bioMérieux,”, “Table 6” for “Table 2”
as §1, with “as ATB” for “as AT”, “Table 10” for “Table 2”, “susceptible, T” for “susceptible, ‘I’”

## C[C@@H](O)[C@H]1C(=O)N2C(C(=O)O)=C(SCCN=CN)C[C@H]12 [Imipenem, imipenem]
Host strain YMC14/01/C29
  antibiotic susceptibility class: R
Host strain YMC14/01/IP122
  antibiotic susceptibility class: R
Host strain YMC14/01/L8
  antibiotic susceptibility class: R
Host strain YMC14/01/P31
  antibiotic susceptibility class: R
Host strain YMC14/01/P117
  antibiotic susceptibility class: R
Host strain YMC14/01/P224
  antibiotic susceptibility class: R
Host strain YMC14/01/P727
  antibiotic susceptibility class: R
Host strain YMC14/01/P728
  antibiotic susceptibility class: R
Host strain YMC14/01/R130
  antibiotic susceptibility class: R
Host strain YMC14/01/R160
  antibiotic susceptibility class: R
Host strain YMC14/01/R198
  antibiotic susceptibility class: R
Host strain YMC14/01/R257
  antibiotic susceptibility class: R
Host strain YMC14/01/R270
  antibiotic susceptibility class: R
Host strain YMC14/01/R324
  antibiotic susceptibility class: R
Host strain YMC14/01/R443
  antibiotic susceptibility class: R
Host strain YMC14/01/R451
  antibiotic susceptibility class: R
Host strain YMC14/01/R560
  antibiotic susceptibility class: R
Host strain YMC14/01/R617
  antibiotic susceptibility class: R
Host strain YMC14/01/R671
  antibiotic susceptibility class: R
Host strain YMC14/01/R732
  antibiotic susceptibility class: R
Host strain YMC14/01/R767
  antibiotic susceptibility class: R
Host strain YMC14/01/R904
  antibiotic susceptibility class: R
Host strain YMC14/01/R905
  antibiotic susceptibility class: R
Host strain YMC14/01/R921
  antibiotic susceptibility class: R
Host strain YMC14/01/R941
  antibiotic susceptibility class: R
Host strain YMC14/01/R958
  antibiotic susceptibility class: R
Host strain YMC14/01/R1006
  antibiotic susceptibility class: R
Host strain YMC14/01/R1199
  antibiotic susceptibility class: R
Host strain YMC14/01/R1659
  antibiotic susceptibility class: R
Host strain YMC14/01/R1722
  antibiotic susceptibility class: R
Host strain YMC14/01/R1752
  antibiotic susceptibility class: R
Host strain YMC14/01/R2429
  antibiotic susceptibility class: R
Host strain YMC14/01/R2572
  antibiotic susceptibility class: R
Host strain YMC14/01/R2855
  antibiotic susceptibility class: R
Host strain YMC14/01/R2945
  antibiotic susceptibility class: R
Host strain YMC14/01/R3007
  antibiotic susceptibility class: R
Host strain YMC14/01/R3129
  antibiotic susceptibility class: R
Host strain YMC14/01/R3317
  antibiotic susceptibility class: R
Host strain YMC14/01/R3474
  antibiotic susceptibility class: R
Host strain YMC14/01/R3574
  antibiotic susceptibility class: R
Host strain YMC14/01/U313
  antibiotic susceptibility class: R
Host strain YMC14/01/U318
  antibiotic susceptibility class: R
Host strain YMC14/02/L18
  antibiotic susceptibility class: R
Host strain YMC14/02/P47
  antibiotic susceptibility class: R
Host strain YMC14/02/R1860
  antibiotic susceptibility class: R
Host strain YMC14/02/R2417
  antibiotic susceptibility class: R
Host strain YMC14/02/R2599
  antibiotic susceptibility class: R
Host strain YMC14/02/R2668
  antibiotic susceptibility class: R
Host strain YMC14/02/R2758
  antibiotic susceptibility class: R
Host strain YMC14/02/R2781
  antibiotic susceptibility class: R
Host strain YMC14/02/R3106
  antibiotic susceptibility class: R
Host strain YMC14/02/R3419
  antibiotic susceptibility class: R
Host strain YMC14/02/U1607
  antibiotic susceptibility class: R
Host strain YMC14/03/L9
  antibiotic susceptibility class: R
Host strain YMC14/03/P471
  antibiotic susceptibility class: R
Host strain YMC14/03/R122
  antibiotic susceptibility class: R
Host strain YMC14/03/R217
  antibiotic susceptibility class: R
Host strain YMC14/03/R380
  antibiotic susceptibility class: R
Host strain YMC14/03/R618
  antibiotic susceptibility class: R
Host strain YMC14/03/R2144
  antibiotic susceptibility class: R
Host strain YMC14/03/U4616
  antibiotic susceptibility class: R
Host strain YMC14/04/R1078
  antibiotic susceptibility class: R
Host strain YMC14/04/R1080
  antibiotic susceptibility class: R
Host strain YMC14/06/R2359
  antibiotic susceptibility S/I/R: R
  susceptibility category (S/I/R): R
Host strain YMC14/08/R1169
  antibiotic susceptibility S/I/R: R
  susceptibility category (S/I/R): R
Host strain YMC14/08/T90
  antibiotic susceptibility S/I/R: R
  susceptibility category (S/I/R): R
Host strain YMC15/02/R436
  antibiotic susceptibility S/I/R: R
  susceptibility category (S/I/R): R
Host strain YMC15/02/T28
  antibiotic susceptibility S/I/R: R
  susceptibility category (S/I/R): R
Host strain YMC15/03/R1604
  antibiotic susceptibility S/I/R: R
  susceptibility category (S/I/R): R
Host strain YMC15/09/R1869
  antibiotic susceptibility S/I/R: R
  susceptibility category (S/I/R): R
Host strain YMC16/01/P11
  antibiotic susceptibility S/I/R: R
  susceptibility category (S/I/R): R
Host strain YMC16/01/R123
  antibiotic susceptibility S/I/R: R
  susceptibility category (S/I/R): R
Host strain YMC16/01/R198
  antibiotic susceptibility S/I/R: R
  susceptibility category (S/I/R): R
Host strain YMC16/01/R353
  antibiotic susceptibility S/I/R: R
  susceptibility category (S/I/R): R
Host strain YMC16/01/R380
  antibiotic susceptibility S/I/R: R
  susceptibility category (S/I/R): R
Host strain YMC16/01/R397
  antibiotic susceptibility S/I/R: R
  susceptibility category (S/I/R): R
Host strain YMC16/01/R405
  antibiotic susceptibility S/I/R: R
  susceptibility category (S/I/R): R
Host strain YMC16/03/R4461
  antibiotic susceptibility S/I/R: R
  susceptibility category (S/I/R): R
Host strain YMC16/05/R2210
  antibiotic susceptibility S/I/R: R
  susceptibility category (S/I/R): R
Host strain YMC16/07/R2512
  antibiotic susceptibility S/I/R: R
  susceptibility category (S/I/R): R
Host strain YMC16/09/R2471
  antibiotic susceptibility S/I/R: R
  susceptibility category (S/I/R): R
Host strain YMC16/10/R2537
  antibiotic susceptibility S/I/R: R
  susceptibility category (S/I/R): R
Host strain YMC16/12/B11422
  antibiotic susceptibility S/I/R: R
  susceptibility category (S/I/R): R
Host strain YMC16/12/B11449
  antibiotic susceptibility S/I/R: R
  susceptibility category (S/I/R): R
Host strain YMC16/12/B13325
  antibiotic susceptibility S/I/R: R
  susceptibility category (S/I/R): R
Host strain YMC16/12/P503
  antibiotic susceptibility S/I/R: R
  susceptibility category (S/I/R): R
Host strain YMC16/12/R4637
  antibiotic susceptibility S/I/R: R
  susceptibility category (S/I/R): R
Host strain YMC17/01/B8053
  antibiotic susceptibility S/I/R: R
  susceptibility category (S/I/R): R
Host strain YMC17/01/B10087
  antibiotic susceptibility S/I/R: R
  susceptibility category (S/I/R): R
Host strain YMC17/01/B12075
  antibiotic susceptibility S/I/R: R
  susceptibility category (S/I/R): R
Host strain YMC17/01/B13454
  antibiotic susceptibility S/I/R: R
  susceptibility category (S/I/R): R
Host strain YMC17/01/P518
  antibiotic susceptibility S/I/R: R
  susceptibility category (S/I/R): R
Host strain YMC17/01/R2812
  antibiotic susceptibility S/I/R: R
  susceptibility category (S/I/R): R
Host strain YMC17/02/B14
  antibiotic susceptibility S/I/R: R
  susceptibility category (S/I/R): R
Host strain YMC17/02/B87
  antibiotic susceptibility S/I/R: R
  susceptibility category (S/I/R): R
Host strain YMC17/02/B721
  antibiotic susceptibility S/I/R: R
  susceptibility category (S/I/R): R
Host strain YMC17/02/B4039
  antibiotic susceptibility S/I/R: R
  susceptibility category (S/I/R): R
Host strain YMC17/02/B4520
  antibiotic susceptibility S/I/R: R
  susceptibility category (S/I/R): R
Host strain YMC17/02/B4864
  antibiotic susceptibility S/I/R: S
  susceptibility category (S/I/R): S
Host strain YMC17/02/B8414
  antibiotic susceptibility S/I/R: R
  susceptibility category (S/I/R): R
Host strain YMC17/02/P523
  antibiotic susceptibility S/I/R: R
  susceptibility category (S/I/R): R
Host strain YMC17/02/R541
  antibiotic susceptibility S/I/R: R
  susceptibility category (S/I/R): R
Host strain YMC17/02/R2392
  antibiotic susceptibility S/I/R: R
  susceptibility category (S/I/R): R
Host strain YMC17/03/B4730
  antibiotic susceptibility S/I/R: R
  susceptibility category (S/I/R): R
Host strain YMC17/03/B5000
  antibiotic susceptibility S/I/R: R
  susceptibility category (S/I/R): R
Host strain YMC17/03/P971
  antibiotic susceptibility S/I/R: R
  susceptibility category (S/I/R): R
Host strain YMC17/03/R348
  antibiotic susceptibility S/I/R: R
  susceptibility category (S/I/R): R
Host strain YMC17/03/R585
  antibiotic susceptibility S/I/R: R
  susceptibility category (S/I/R): R
Host strain YMC17/03/R1888
  antibiotic susceptibility S/I/R: R
  susceptibility category (S/I/R): R
Host strain YMC17/03/R3279
  antibiotic susceptibility S/I/R: R
  susceptibility category (S/I/R): R
Host strain YMC17/03/R4077
  antibiotic susceptibility S/I/R: R
  susceptibility category (S/I/R): R
Host strain YMC17/03/R4607
  antibiotic susceptibility S/I/R: R
  susceptibility category (S/I/R): R
Host strain YMC17/04/R488
  antibiotic susceptibility S/I/R: R
  susceptibility category (S/I/R): R
Host strain YMC17/04/R640
  antibiotic susceptibility S/I/R: R
  susceptibility category (S/I/R): R
Host strain YMC/17/05/R1095
  antibiotic susceptibility S/I/R: R
  susceptibility category (S/I/R): R
